Experimental data from patent publication US10000787B2, “Methods for diagnosing bacterial infections” (STC.UNM, priority 2012, dated 2018).

Biological target: T1, pHPA decarboxylase (Clostridioides difficile, UniProt Q84F16)
T1 construct: Isolated cell free extract of C. difficile; endogenous in cells; host or cells: C. difficile cell-free extract
Assay: estimated ^13CO2 production from labeled substrate by pHPA decarboxylase in a C. difficile infection
Format: in vivo
Conditions: infection in which 10 mg of bacterial protein is present; worked out from 12 mU per mg of protein pHPA decarboxylase in isolated cell free extract of C. difficile
Method: The compositions of the invention can also be administered intravenously. Isolated cell free extract of C. difficile contains 12 mU per mg of protein of the activating enzyme pHPA decarboxylase. This correlates to the production of 2.7 mL of ^13CO2 per minute in an infection in which 10 mg of bacterial protein is present when a patient is treated with a compound of the invention, for example, ^13C-hydroxyphenylacetate. Oftentimes, a patient is infected with much more than 10 mg of bacterial protein with a C. difficile infection.
Assuming 15 liters of air is respired per minute, and with 4% exhaled CO2, a patient will exhale about 600 ml of CO2 per minute, of which approximately 6.6 mLs will be ^13CO2. […] Thus, efficient delivery of isotopically-labeled compound is important. Preferably, an intravenous dosage form is administered to the patient, leading to rapid increases in intestinal levels, and allowing breath testing from 10 to 120 minutes after dosage. Such dosage forms are sterile and particle-free. Preparation methods for such dosage forms are known in the art.

T1 sequence (Q84F15 whole entry): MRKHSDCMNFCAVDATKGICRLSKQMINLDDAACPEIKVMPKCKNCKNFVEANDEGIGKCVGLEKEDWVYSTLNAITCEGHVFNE
T1 sequence (Q84F16 whole entry): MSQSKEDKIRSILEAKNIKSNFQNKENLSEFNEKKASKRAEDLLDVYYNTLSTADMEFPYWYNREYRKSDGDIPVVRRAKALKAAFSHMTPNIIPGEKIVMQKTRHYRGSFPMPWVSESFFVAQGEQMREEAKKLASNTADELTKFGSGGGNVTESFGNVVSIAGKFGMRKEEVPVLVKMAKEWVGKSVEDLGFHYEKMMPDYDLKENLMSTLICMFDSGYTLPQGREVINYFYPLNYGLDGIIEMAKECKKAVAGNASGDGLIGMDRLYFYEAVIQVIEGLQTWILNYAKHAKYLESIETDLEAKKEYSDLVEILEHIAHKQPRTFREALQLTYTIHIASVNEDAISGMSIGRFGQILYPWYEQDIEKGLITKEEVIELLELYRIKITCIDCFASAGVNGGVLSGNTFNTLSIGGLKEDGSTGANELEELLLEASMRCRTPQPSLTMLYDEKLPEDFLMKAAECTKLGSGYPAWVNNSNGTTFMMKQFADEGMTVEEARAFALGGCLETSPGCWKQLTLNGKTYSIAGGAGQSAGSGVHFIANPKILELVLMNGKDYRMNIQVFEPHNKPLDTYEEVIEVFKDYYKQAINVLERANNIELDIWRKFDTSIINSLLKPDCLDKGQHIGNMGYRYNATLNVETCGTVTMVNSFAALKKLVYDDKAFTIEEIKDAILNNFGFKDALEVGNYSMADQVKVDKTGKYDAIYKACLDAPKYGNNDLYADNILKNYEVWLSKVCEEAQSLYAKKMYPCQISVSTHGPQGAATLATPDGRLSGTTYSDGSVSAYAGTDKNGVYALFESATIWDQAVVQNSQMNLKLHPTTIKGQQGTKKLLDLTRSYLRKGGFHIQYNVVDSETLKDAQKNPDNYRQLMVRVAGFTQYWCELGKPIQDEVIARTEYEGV

## ^13C-hydroxyphenylacetate
  production of ^13CO2: 2.7 mL per minute
